What was measured:
SIRT7 [1] = molecular target: T1, SIRT7 (Homo sapiens, UniProt Q9NRC8); assay: Dot blot assay of SIRT7-mediated H3K18ac peptide deacetylation; assay type: biochemical
T1 construct: His-tagged full length SIRT7 protein expression from BL21 bacterial cells; His; made in house; host or cells: E. coli BL21
T1 sequence (Q9NRC8 1-400): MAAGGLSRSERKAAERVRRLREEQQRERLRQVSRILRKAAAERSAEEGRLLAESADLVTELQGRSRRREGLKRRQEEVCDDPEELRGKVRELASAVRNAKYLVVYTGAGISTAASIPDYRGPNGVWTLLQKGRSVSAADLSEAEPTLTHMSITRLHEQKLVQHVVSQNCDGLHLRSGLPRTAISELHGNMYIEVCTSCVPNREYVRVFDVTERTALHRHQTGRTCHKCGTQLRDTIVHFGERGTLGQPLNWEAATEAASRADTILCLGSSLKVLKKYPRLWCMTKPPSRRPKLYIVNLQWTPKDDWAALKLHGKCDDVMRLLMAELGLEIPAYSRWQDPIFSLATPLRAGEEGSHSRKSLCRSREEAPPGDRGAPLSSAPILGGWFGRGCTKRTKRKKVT
Description: To avoid the bias of the fluorescence assay, we also performed dot blot assays for the effects of natural compounds on SIRT7-mediated deacetylation of H3K18ac peptides in vitro (Figures S2A and S2B). In this system, SIRT7 mediated a dose-dependent deacetylation of H3K18ac (Figure 1D). […] Based on comparisons of all the candidates, we selected YZL-51N as the best for further investigation (Figure 1F). […] Thus, P. americana derived YZL-51N was confirmed as an identified SIRT7 inhibitor using parallel peptide-based screening platforms.
For dot blot assays, the reaction system containing 10 μg His-SIRT7, 0.5 mM NAD^+, 10 μM biotin-H3K18ac peptides and 50 μM potential compound was mixed and incubated at 37°C for 90 min. Samples were transferred to a polyvinylidene difluoride (PVDF) membrane, and then blocked with 5% skimmed milk. The blots were probed with H3K18ac primary antibody at RT for 2 h and then incubated with secondary antibody at RT for 1h. The bands were visualized using ECL substrates (Thermo Fisher, USA) on Tanon 5200SF Imaging System.

SIRT1/2/3/5/6 = assay: Sirtuin deacetylation assay (fluorometric ELISA kit), other sirtuins; assay type: biochemical, human; details: different concentrations
Description: To determine the selectivity of YZL-51N, we assessed its inhibitory activity against recombinant human sirtuins expressed in E. coli through deacetylation assays in vitro (Figures 2A and 2B). […] We next validated the direct interaction between YZL-51N and SIRT1/2/6/7 using bio-layer interferometry (BLI) assays to compare their binding affinities. […] To gain insights into the ability of YZL-51N to affect sirtuin thermostability, we conducted protein thermal shift assays. At a concentration of 10 μM, YZL-51N caused shifts in the melting curves for SIRT7, SIRT6 and SIRT1 of 2.86°C, 1.0°C and 0.45°C (Figures S7A–S7C). In addition, we observed a dose-dependent increase in the ΔTm for SIRT7 following YZL-51N treatment (Figures 2F and 2G). Taken together, these findings confirm that YZL-51N is a selective inhibitor of SIRT7.
Deacetylase activity of 10 μg purified SIRT proteins was assessed using the Sirtuin Activity Assay Kit (BioVision, Cat#K324-100, USA) according to the manufacturer’s instructions. The fluorescence intensity (Ex/Em = 400/505 nm) was measured using a microplate reader (Synergy H4 Hybrid Reader, Biotek) in the end-point mode.

SIRT7 [2] = molecular target: T1, SIRT7; assay: Bio-layer interferometry (BLI) binding assay; details: 0-40 μM, PBST pH 7.4
Method: The binding affinity of SIRT1/2/6/7 with YZL-51N was determined using Super Streptavidin (SSA) biosensors in an Octet Red 96 instrument (ForteBio Inc., Menlo Park, CA, United States). Briefly, the biotinylated SIRT1/2/6/7 proteins were immobilized onto the surface of SSA biosensors. Increasing concentrations of YZL-51N were allowed to flow through the chips at room temperature in PBST buffer (pH 7.4). Assays were performed in black 96-well flat bottom plates on a shaker at 1000 r/min. The association and dissociation of YZL-51N with SIRT1/2/6/7 were measured for 300 s. Kinetic parameters and affinities were calculated from a non-linear global fit of the data between YZL-51N and SIRT1/2/6/7 using Octet Data Analysis software version 7.0 (Fortebio).

SIRT1 = molecular target: T2, SIRT1 (Homo sapiens, UniProt Q96EB6); assay: Cellular thermal shift assay in HCT116 cell lysates; assay type: binding; details: 20 μM
T2 construct: endogenous in cells; host or cells: HCT116
T2 sequence (Q96EB6 1-747): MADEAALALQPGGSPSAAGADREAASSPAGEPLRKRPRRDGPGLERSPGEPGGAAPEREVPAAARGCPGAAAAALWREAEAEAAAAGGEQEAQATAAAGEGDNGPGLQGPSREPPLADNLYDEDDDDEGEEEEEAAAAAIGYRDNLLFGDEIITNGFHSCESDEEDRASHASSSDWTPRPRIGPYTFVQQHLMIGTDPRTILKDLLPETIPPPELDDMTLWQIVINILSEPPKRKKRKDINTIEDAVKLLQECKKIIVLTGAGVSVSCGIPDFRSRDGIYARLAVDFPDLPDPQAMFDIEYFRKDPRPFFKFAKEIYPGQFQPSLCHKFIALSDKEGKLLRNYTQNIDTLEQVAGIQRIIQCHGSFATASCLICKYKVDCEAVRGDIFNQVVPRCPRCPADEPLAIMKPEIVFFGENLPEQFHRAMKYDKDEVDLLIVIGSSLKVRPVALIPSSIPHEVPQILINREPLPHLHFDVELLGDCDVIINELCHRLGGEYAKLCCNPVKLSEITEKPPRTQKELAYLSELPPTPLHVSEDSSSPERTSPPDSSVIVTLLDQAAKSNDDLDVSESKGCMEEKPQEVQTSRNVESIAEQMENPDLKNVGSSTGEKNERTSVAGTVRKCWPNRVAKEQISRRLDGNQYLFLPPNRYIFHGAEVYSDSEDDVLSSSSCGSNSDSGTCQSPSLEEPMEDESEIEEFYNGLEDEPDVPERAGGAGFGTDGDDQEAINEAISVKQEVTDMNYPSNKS
Method: (§1) Cellular thermal shift assays were performed according to previously reported methods with some modifications.[66] Briefly, HCT116 cells were lysed with RIPA buffer and incubated with 20 μM YZL-51N or DMSO for 1 h on ice. Subsequently, cell lysates were divided into 70 μL aliquots and heated individually at different temperatures for 4 min following by cooling on ice. The heated lysates were centrifuged, and 50 μL supernatants were taken for SDS-PAGE and immunoblotting analysis with the indicated antibodies.

SIRT7 [3] = molecular target: T1, SIRT7; assay: as above; assay type: binding; details: 20 μM
Method: as §1

Rescue of H3K18 acetylation (SIRT7 [1]; dot blot screening, 50 μM): rescued H3K18 acetylation
EC50 (SIRT7 [1]; read-out: Dot blot assay H3K18ac rescue EC50): 13.5 µM
Inhibition of deacetylase activities of other sirtuins (SIRT1/2/3/5/6): did not inhibit
Kd (SIRT7 [2]): 3.3 µM
Effect on the melting curve (SIRT1): no obvious effect
Shift in the melting curve (SIRT7 [3]): 5.2 °C
Structure (SMILES): COC(=O)/C(=C\C(=O)c1ccc(O)c(O)c1)c1ccc(O)c(O)c1 [YZL-51N]

Source: paper PMC11214487, “YZL-51N functions as a selective inhibitor of SIRT7 by NAD^+ competition to impede DNA damage repair” (iScience, 2024)
